{"source": "patent US20050153406A1", "about": "“Process for producing solution containing ubiquinone-10” (priority 2002, published 2005)", "assay": "Solubility of ubiquinone-10 in aqueous methanol solution", "type": "physicochemical", "settings": "aqueous methanol solutions of varying concentration at 20, 30, 50 and 70° C. (FIG. 1)", "description": "Using a standard ubiquinone-10 (manufactured by Wako Pure Chemical Industries Co., Ltd.), the solubility of ubiquinone-10 is an aqueous methanol solution was examined in terms of the relation between the concentration of the solution and temperature."}
{"smiles": "COC1=C(OC)C(=O)C(C/C=C(\\C)CC/C=C(\\C)CC/C=C(\\C)CC/C=C(\\C)CC/C=C(\\C)CC/C=C(\\C)CC/C=C(\\C)CC/C=C(\\C)CC/C=C(\\C)CCC=C(C)C)=C(C)C1=O", "note": "[ubiquinone-10]", "values": [{"measurement": "solubility of ubiquinone-10 in aqueous methanol solution", "result": "increased in proportion to the methanol concentration and the temperature of the aqueous methanol solution"}]}
